Structures are written as SMILES.

Experiment [1] has as its system conscious normotensive dogs. Nature of the experiment: Blood pressure in conscious normotensive dogs (oral). The class given is in vivo, dog (mongrel). To be noted: Table II, oral. As to the method:
As for the experiments with conscious normotensive dogs, mongrel dogs with incannulated abdominal aorta or with incannulated abdominal aorta and cardiac left ventricle were used. The compounds were administered by oral route as powder in gelatine capsules. Mean blood pressure (M.B.P.) was registered directly using a Bentley pressure transducer.

Experiment [2] deals with conscious renal hypertensive dogs. Briefly: Systolic blood pressure in conscious renal hypertensive dogs (oral, Goldblatt's method). The class given is in vivo, dog (mongrel). Particulars: Table I, renal hypertensive dogs, oral. The protocol: The experiments herein described which use renal hypertensive dogs are conducted essentially as described in the above cited text.
More particularly, in the experiments with conscious renal hypertensive dogs, mongrel dogs with two clips on the renal arteries were used according to the Goldblatt's method. The compounds were administered by oral route as powder in gelatine capsules. Systolic blood pressure (SBP) was registered at the tail (indirect method).
^a S.B.P. = Systolic blood pressure. It is determined after oral
administration where three animals were employed for each dose. It is
expressed in mmHg as mean value ± SE.
^b % Δ = % variation of the S.B.P. over the basal value (time
0) at the indicated time after administration.

Regarding `CC(C)n1c(CCN2CCN(c3ccccc3)CC2)nc2ccc3ccccc3c21` [Compound 1, 2-[2-(4-phenyl-1-piperazinyl)ethyl]-1-(1-methylethyl)-1H-naphth[1,2-d]imidazole], the “% systolic blood pressure variation” value is reported as -17% in experiment [1] (1 mg/kg) and -37% in experiment [1] (5 mg/kg).

In the case of `Cn1c(CCN2CCN(c3ccccc3)CC2)nc2ccc3ccccc3c21` [Compound 2, 2-[2-(4-phenyl-1-piperazinyl)ethyl]-1-methyl-1H-naphth-[1,2-d]imidazole], the “% systolic pressure variation” value in experiment [2] (10 mg/kg) is given as -32%. Also, in experiment [1] (10 mg/kg), the “% systolic blood pressure variation” value is reported as -30%. As to `Cn1c(CCN2CCN(c3ccc(Cl)cc3)CC2)nc2ccc3ccccc3c21` [Compound 4, 2-[2-[4-(4-chlorophenyl)-1-piperazinyl]ethyl]-1-methyl-1H-naphth[1,2-d]imidazole], the figures for the “% systolic pressure variation” value in experiment [2] (10 mg/kg) and in experiment [2] (20 mg/kg) were -29% and -31%, respectively. For the molecule `COc1cccc(N2CCN(CCc3nc4ccc5ccccc5c4n3C(C)C)CC2)c1` [Compound 5, 2-[2-[4-(3-methoxyphenyl)-1-piperazinyl]ethyl]-1-(1-methylethyl)-1H-naphth[1,2-d]imidazole], the “% systolic pressure variation” value in experiment [2] (20 mg/kg) was -20%. Still for that read-out and setting: as for `Cn1c(CCN2CCN(c3cccc(C(F)(F)F)c3)CC2)nc2ccc3ccccc3c21` [Compound 6, 2-[2-[4-(3-trifluoromethylphenyl)-1-piperazinyl]ethyl]-1-methyl-1H-naphth[1,2-d]imidazole], the figure is -39%. With `CC(C)n1c(CCN2CCN(c3ccc(Cl)cc3)CC2)nc2ccc3ccccc3c21` [Compound 7, 2-[2-[4-(4-chlorophenyl)-1-piperazinyl]ethyl]-1-(1-methylethyl)-1H-naphth[1,2-d]imidazole], the figures for the “% systolic pressure variation” value in experiment [2] (2 mg/kg) and in experiment [2] (5 mg/kg) were -14% and -35%, respectively.
